Numbered stars: 1 amine (or outer) side, 2 acyl side, 3 side chain; on linkers, the order of the positions; unused ones are H or OH. Bridge positions count the residues as written; N and C are the ends. Square brackets hold non-standard residues; d marks the D form. Peptide text beside a SMILES is read from it. * marks the point of attachment. ξ: configuration not given here. Phe(4-CONH2) = NC(=O)c1ccc(C[C@H](N)C(=O)O)cc1; Phe(4-COOH) = N[C@@H](Cc1ccc(C(=O)O)cc1)C(=O)O; Bip = N[C@@H](Cc1ccc(-c2ccccc2)cc1)C(=O)O; Phe(3-CN) = N#Cc1cccc(C[C@H](N)C(=O)O)c1; Phe(3-Me) = Cc1cccc(C[C@H](N)C(=O)O)c1; γGlu = O=C(O)[C@H](CCC(=O)[*:2])N[*:1]; NH(CH2)12COOH = O=C(O)CCCCCCCCCCCCN*; Val(3-OH) = CC(C)(O)[C@H](N)C(=O)O; Ala(cPr) = N[C@@H](CC1CC1)C(=O)O; 4Pal = N[C@@H](Cc1ccncc1)C(=O)O; Cha = N[C@@H](CC1CCCCC1)C(=O)O; Cit = NC(=O)NCCC[C@H](N)C(=O)O; Thr(3ξ) = CC(O)[C@H](N)C(=O)O; 3Abz = Nc1cccc(C(=O)O)c1; Carboxymethyl = O=C(O)C*; Orn = NCCC[C@H](N)C(=O)O; Aun = NCCCCCCCCCCC(=O)O; Dab = NCC[C@H](N)C(=O)O; Dap = NC[C@H](N)C(=O)O; AEEA = NCCOCCOCC(=O)O; ξDab = NCCC(N)C(=O)O
What follows are compounds tested against T1, PD-1/PD-L1 interaction (PE-labeled human PD-L1-Ig binding to Jurkat cell line over-expressing human PD-1) (Homo sapiens, UniProt Q15116) (assay: Jurkat-PD-1 Cell Binding High-Content Screening Assay (CBA)). Conditions: Jurkat cell line over-expressing human PD-1; PE-labeled PD-L1-Ig 20 nM final; read-out: Jurkat hPD1-PDL1 IC50.
T1 construct: expressed in transfected cells; host or cells: Jurkat
Assay type: cell-based
Outline: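 Binding of fluorescent PD-L1-Ig (phycoerythrin on Ig tag, 20 nM final, 1 h) measured by high-content imaging of fixed, Hoechst-counterstained Jurkat-hPD-1 cells. Compound added 2 h at 37° C beforehand, in DMEM with 10% fetal calf serum.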

T1 sequence (Q15116 25-288): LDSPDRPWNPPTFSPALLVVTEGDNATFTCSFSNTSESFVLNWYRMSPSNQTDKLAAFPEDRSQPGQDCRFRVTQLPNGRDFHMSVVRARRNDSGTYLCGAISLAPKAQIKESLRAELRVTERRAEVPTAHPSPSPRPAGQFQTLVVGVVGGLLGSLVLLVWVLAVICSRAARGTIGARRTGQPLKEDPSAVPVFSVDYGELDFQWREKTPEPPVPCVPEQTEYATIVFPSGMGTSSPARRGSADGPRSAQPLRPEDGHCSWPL

IC50 [µM] | SMILES
0.028 | Cc1cccc(C[C@@H]2NC(=O)[C@H](CC(=O)O)NC(=O)[C@H](Cc3ccncc3)NC(=O)[C@H](Cc3ccc(OCC(=O)O)cc3)NC(=O)CSC[C@@H](C(=O)N[C@@H](CCCCN)C(=O)NCCCCCCCCCCC(=O)O)NC(=O)[C@H]([C@@H](C)O)NC(=O)[C@H](C(C)C)NC(=O)[C@H](CC3CCCCC3)NC(=O)[C@H](CCN)NC(=O)[C@@H](CC(C)C)NC(=O)[C@H](CCCN)NC(=O)[C@H](C(C)C)NC(=O)[C@H](Cc3ccc(-c4ccccc4)cc3)NC(=O)[C@H](C(C)C)NC2=O)c1 [Compound 1166] ({CH2CO}-Y(Carboxymethyl)[4Pal]D[Phe(3-Me)]V[Bip]V[Orn][dL][Dab][Cha]VTCK[Aun]-OH; thioether N-14)
0.091 | Cc1cccc(C[C@@H]2NC(=O)[C@H](CC(=O)O)NC(=O)[C@H](Cc3ccc(OCC(=O)O)cc3)NC(=O)[C@H](C(C)O)NC(=O)CSC[C@@H](C(=O)NC(CCN)C(=O)NCCCCCCCCCCC(=O)O)NC(=O)[C@H](C(C)O)NC(=O)[C@H](C(C)C)NC(=O)[C@H](CC3CCCCC3)NC(=O)[C@H](CCN)NC(=O)[C@@H](CC(C)C)NC(=O)[C@H](CCCN)NC(=O)[C@H](CCC(=O)O)NC(=O)[C@H](Cc3ccc(-c4ccccc4)cc3)NC(=O)[C@H](CCC(=O)O)NC2=O)c1 (stereo partly drawn) [Compound 3448] ({CH2CO}-[Thr(3ξ)]Y(Carboxymethyl)D[Phe(3-Me)]E[Bip]E[Orn][dL][Dab][Cha]V[Thr(3ξ)]C[ξDab][Aun]-OH; thioether N-14)
0.0143 | Cc1cccc(C[C@@H]2NC(=O)[C@H](CC(=O)O)NC(=O)[C@H](Cc3ccc(OCC(=O)O)cc3)NC(=O)[C@H](CCCNC(=N)N)NC(=O)CSC[C@@H](C(=O)N[C@@H](CCN)C(=O)NCCCCCCCCCCC(=O)O)NC(=O)[C@H]([C@@H](C)O)NC(=O)[C@H](C(C)C)NC(=O)[C@H](CC3CC3)NC(=O)[C@H](CCN)NC(=O)[C@@H](CC(C)C)NC(=O)[C@H](CCCN)NC(=O)[C@H](Cc3ccc(OCC(=O)O)cc3)NC(=O)[C@H](Cc3ccc(-c4ccccc4)cc3)NC(=O)[C@H](Cc3ccc(OCC(=O)O)cc3)NC2=O)c1 [Compound 2169] ({CH2CO}-RY(Carboxymethyl)D[Phe(3-Me)]Y(Carboxymethyl)[Bip]Y(Carboxymethyl)[Orn][dL][Dab][Ala(cPr)]VTC[Dab][Aun]-OH; thioether N-14)
0.0037 | CC(C)C[C@H]1NC(=O)[C@H](CCCN)NC(=O)[C@H](C(C)C)NC(=O)[C@H](Cc2ccc(-c3ccccc3)cc2)NC(=O)[C@H](C(C)C)NC(=O)[C@H](Cc2c[nH]c3ccccc23)NC(=O)[C@H](CC(=O)O)NC(=O)[C@H](Cc2ccc(OCC(=O)O)cc2)NC(=O)[C@H](CCCNC(=N)N)NC(=O)CSC[C@@H](C(=O)NCCOCCOCC(=O)NCCCCCCCCCCC(=O)O)NC(=O)[C@H](CCCN)NC(=O)[C@H](C(C)C)NC(=O)[C@H](CC2CCCCC2)NC(=O)[C@H](CCN)NC1=O [Compound 3347] ({CH2CO}-RY(Carboxymethyl)DWV[Bip]V[Orn][dL][Dab][Cha]V[Orn]C[AEEA][Aun]-OH; thioether N-14)
0.0062 | Cc1cccc(C[C@@H]2NC(=O)[C@H](CC(=O)O)NC(=O)[C@H](Cc3ccc(OCC(=O)O)cc3)NC(=O)[C@H](CCCNC(=N)N)NC(=O)CSC[C@@H](C(=O)NCCCCCCCCCCC(=O)O)NC(=O)[C@H](CCCN)NC(=O)[C@H](C(C)C)NC(=O)[C@H](CC3CCCCC3)NC(=O)[C@H](CCN)NC(=O)[C@@H](CC(C)C)NC(=O)[C@H](CCCN)NC(=O)[C@H](C(C)C)NC(=O)[C@H](Cc3ccc(-c4ccccc4)cc3)NC(=O)[C@H](C(C)C)NC2=O)c1 [Compound 3316] ({CH2CO}-RY(Carboxymethyl)D[Phe(3-Me)]V[Bip]V[Orn][dL][Dab][Cha]V[Orn]C[Aun]-OH; thioether N-14)
0.0088 | Cc1cccc(C[C@@H]2NC(=O)[C@H](CC(=O)O)NC(=O)[C@H](Cc3ccc(OCC(=O)O)cc3)NC(=O)[C@H](C(C)O)NC(=O)CSC[C@@H](C(=O)N[C@@H](CCN)C(=O)NCCCCCCCCCCC(=O)O)NC(=O)[C@H](CO)NC(=O)[C@H](C(C)(C)O)NC(=O)[C@H](CC3CCCCC3)NC(=O)[C@H](CCN)NC(=O)[C@@H](CC(C)C)NC(=O)[C@H](CCCN)NC(=O)[C@H](Cc3ccc(O)cc3)NC(=O)[C@H](Cc3ccc(-c4ccccc4)cc3)NC(=O)[C@H](Cc3ccc(C(N)=O)cc3)NC2=O)c1 (stereo partly drawn) [Compound 3718] ({CH2CO}-[Thr(3ξ)]Y(Carboxymethyl)D[Phe(3-Me)][Phe(4-CONH2)][Bip]Y[Orn][dL][Dab][Cha][Val(3-OH)]SC[Dab][Aun]-OH; thioether N-14)
0.024 | Cc1cccc(C[C@@H]2NC(=O)[C@H](CC(=O)O)NC(=O)[C@H](Cc3ccc(OCC(=O)O)cc3)NC(=O)[C@H](CCCNC(=N)N)NC(=O)CSC[C@@H](C(=O)N[C@@H](CCCCN)C(=O)NCCCCCCCCCCC(=O)O)NC(=O)[C@H]([C@@H](C)O)NC(=O)[C@H](C(C)C)NC(=O)[C@H](CC3CCCCC3)NC(=O)[C@H](CCN)NC(=O)[C@@H](CC(C)C)NC(=O)[C@H](CCCN)NC(=O)[C@H](Cc3ccc(OCC(=O)O)cc3)NC(=O)[C@H](Cc3ccc(-c4ccccc4)cc3)NC(=O)[C@H](Cc3ccc(OCC(=O)O)cc3)NC2=O)c1 [Compound 1296] ({CH2CO}-RY(Carboxymethyl)D[Phe(3-Me)]Y(Carboxymethyl)[Bip]Y(Carboxymethyl)[Orn][dL][Dab][Cha]VTCK[Aun]-OH; thioether N-14)
0.0166 | Cc1cccc(C[C@@H]2NC(=O)[C@H](CC(=O)O)NC(=O)[C@H](Cc3ccc(OCC(=O)O)cc3)NC(=O)[C@H](C(C)O)NC(=O)CSC[C@@H](C(=O)N[C@@H](CCN)C(=O)NCCOCCOCC(=O)N[C@@H](CCC(=O)NCCOCCOCC(=O)NCCCCCCCCCCCCC(=O)O)C(=O)O)NC(=O)[C@H](CO)NC(=O)[C@H](C(C)(C)O)NC(=O)[C@H](CC3CCCCC3)NC(=O)[C@H](CCN)NC(=O)[C@@H](CC(C)C)NC(=O)[C@H](CCCN)NC(=O)[C@H](Cc3ccc(C(=O)O)cc3)NC(=O)[C@H](Cc3ccc(-c4ccccc4)cc3)NC(=O)[C@H](Cc3ccc(C(=O)O)cc3)NC2=O)c1 (stereo partly drawn) [Compound 3907] ({CH2CO}-[Thr(3ξ)]Y(Carboxymethyl)D[Phe(3-Me)][Phe(4-COOH)][Bip][Phe(4-COOH)][Orn][dL][Dab][Cha][Val(3-OH)]SC[Dab][AEEA][γGlu][AEEA]-{NH(CH2)12COOH}; thioether N-14)
0.105 | CC(C)C[C@@H]1NC(=O)[C@H](Cc2c[nH]c3ccccc23)NC(=O)[C@H](CC(=O)O)NC(=O)[C@H](Cc2ccncc2)NC(=O)[C@H](Cc2ccc(OCC(=O)O)cc2)NC(=O)CSC[C@@H](C(=O)Nc2cccc(C(=O)NCCCCCCCCCCC(=O)O)c2)NC(=O)[C@H](CCCN)NC(=O)[C@H](C(C)C)NC(=O)[C@H](CC2CCCCC2)NC(=O)[C@H](CCN)NC(=O)[C@@H](CC(C)C)NC(=O)[C@H](CCCN)NC(=O)[C@H](C(C)C)NC(=O)[C@H](Cc2ccc(-c3ccccc3)cc2)NC1=O [Compound 1312] ({CH2CO}-Y(Carboxymethyl)[4Pal]DWL[Bip]V[Orn][dL][Dab][Cha]V[Orn]C[3Abz][Aun]-OH; thioether N-14)
0.0417 | Cc1cccc(C[C@@H]2NC(=O)[C@H](CC(=O)O)NC(=O)[C@H](Cc3ccc(OCC(=O)O)cc3)NC(=O)[C@H](Cc3ccc(OCC(=O)O)cc3)NC(=O)CSC[C@@H](C(=O)NCC(=O)N[C@@H](CCCCN)C(=O)NCCCCCCCCCCC(=O)O)NC(=O)[C@H](CO)NC(=O)[C@H](C(C)C)NC(=O)[C@H](CC3CCCCC3)NC(=O)[C@H](CCN)NC(=O)[C@@H](CC(C)C)NC(=O)[C@H](CCCN)NC(=O)[C@H](C(C)C)NC(=O)[C@H](Cc3ccc(-c4ccccc4)cc3)NC(=O)[C@H](CC(C)C)NC2=O)c1 [Compound 1069] ({CH2CO}-Y(Carboxymethyl)Y(Carboxymethyl)D[Phe(3-Me)]L[Bip]V[Orn][dL][Dab][Cha]VSCGK[Aun]-OH; thioether N-14)
0.0232 | CC(C)C[C@H]1NC(=O)[C@H](CCCN)NC(=O)[C@H](C(C)C)NC(=O)[C@H](Cc2ccc(-c3ccccc3)cc2)NC(=O)[C@H](C(C)C)NC(=O)[C@H](Cc2c[nH]c3ccccc23)NC(=O)[C@H](CC(=O)O)NC(=O)[C@H](Cc2ccc(OCC(=O)O)cc2)NC(=O)[C@H](C(C)O)NC(=O)CSC[C@@H](C(=O)N[C@@H](CCN)C(=O)NCCCCCCCCCCC(=O)O)NC(=O)[C@H](Cc2cnc[nH]2)NC(=O)[C@H](C(C)O)NC(=O)[C@H](CC2CCCCC2)NC(=O)[C@H](CCN)NC1=O (stereo partly drawn) [Compound 3665] ({CH2CO}-[Thr(3ξ)]Y(Carboxymethyl)DWV[Bip]V[Orn][dL][Dab][Cha][Thr(3ξ)]HC[Dab][Aun]-OH; thioether N-14)
0.0326 | Cc1cccc(C[C@@H]2NC(=O)[C@H](CC(=O)O)NC(=O)[C@H](Cc3ccc(OCC(=O)O)cc3)NC(=O)[C@H](CN)NC(=O)CSC[C@@H](C(=O)N[C@@H](CCN)C(=O)NCCOCCOCC(=O)NCCCCCCCCCCC(=O)O)NC(=O)[C@H](CCCN)NC(=O)[C@H](C(C)C)NC(=O)[C@H](CC3CCCCC3)NC(=O)[C@H](CCN)NC(=O)[C@@H](CC(C)C)NC(=O)[C@H](CCCN)NC(=O)[C@H](Cc3cccc(C#N)c3)NC(=O)[C@H](Cc3ccc(-c4ccccc4)cc3)NC(=O)[C@H](Cc3ccc(O)cc3)NC2=O)c1 [Compound 2051] ({CH2CO}-[Dap]Y(Carboxymethyl)D[Phe(3-Me)]Y[Bip][Phe(3-CN)][Orn][dL][Dab][Cha]V[Orn]C[Dab][AEEA][Aun]-OH; thioether N-14)
0.0082 | Cc1cccc(C[C@@H]2NC(=O)[C@H](CC(=O)O)NC(=O)[C@H](Cc3ccc(OCC(=O)O)cc3)NC(=O)[C@H](CCCNC(=N)N)NC(=O)CSC[C@@H](C(=O)N[C@@H](CCN)C(=O)NCCCCCCCCCCC(=O)O)NC(=O)[C@H](CCCNC(N)=O)NC(=O)[C@H](C(C)C)NC(=O)[C@H](CC3CCCCC3)NC(=O)[C@H](CCN)NC(=O)[C@@H](CC(C)C)NC(=O)[C@H](CCCN)NC(=O)[C@H](Cc3ccc(OCC(=O)O)cc3)NC(=O)[C@H](Cc3ccc(-c4ccccc4)cc3)NC(=O)[C@H](C(C)C)NC2=O)c1 [Compound 3383] ({CH2CO}-RY(Carboxymethyl)D[Phe(3-Me)]V[Bip]Y(Carboxymethyl)[Orn][dL][Dab][Cha]V[Cit]C[Dab][Aun]-OH; thioether N-14)

Reference: patent US20260022142A1, “MACROCYCLIC IMMUNOMODULATORS” (Bristol-Myers Squibb Company, priority 2022, published 2026)
